According to patent publication US20080214845A1, “ANTIBACTERIAL 6'-MODIFIED 4,5-SUBSTITUTED AMINOGLYCOSIDE ANALOGS” (priority 2005, published 2008):
pIC50, pKd: −log10 of the molar value. Converted amounts (≈) assume the structure as drawn.

Columns and labels:
[1] = test system: Staphylococcus aureus (Smith strain ATCC 13709); assay: Staphylococcus aureus mouse protection assay; assay type: in vivo; conditions: Staph conc. 10^6 IP in 10% mucin, treatments at 1 hour and 3 hour post infection
Protocol: Two of the novel aminoglycoside compounds of the invention were examined for their anitbacterial activity against staphylococcus aureus. The mice were infected IP with 0.5 ml […] staphylococcus aureus in 10% mucin. There were 10 mice in each treated group with treatments at 1 hour and 3 hour post infection. The Ibis compounds (IBIS00561085 R4═R5═CH3 and IBIS00561141 R4═H, R5═(CH2)2C6H5) were used at 75 mg/kg, 37.5 mg/kg, 18.8 mg/kg, 9.4 mg/kg, 4.7 mg/kg, 2.3 mg/kg, 1.17 mg/kg and 0.5 mg/kg. Amakacin, Paromomycin and Neomycin were used as the positive controls at concentration of 2 mg/kg, 1 mg/kg and 0.5 mg/kg.

18S = 18S Kd by FTICR mass spectrometry; assay type: binding
Protocol: (§1) Was performed according to the published report; […]-Lowery, […].; Mohan, […]. et al. Characterization of Low Affinity Complexes Between RNA and Small Molecules Using Electrospray Ionization Mass Spectrometry. J. Am. Chem. […] Screening is performed by measuring the formation of non-covalent complexes between a single ligand or ligand mixture and the appropriate RNA target, along with suitable control structured RNA target(s) simultaneously using a 9.4 T FT-ICR mass spectrometer as detector. Full experimental details of the assay have been described in related literature ([…]-Lowery, et al. in TrAC, Trends Anal. […] The abundances were integrated from the respective ions for free RNA and the ligand-RNA complex. […] The peak ratios are measured at each concentration, then a plot of complex/free RNA versus concentration of ligand added is fitted to a second (or higher) order binding polynomial to determine the KD.

16S = assay: Measurement of 16S Kd by FTICR mass spectrometry; assay type: binding
Protocol: as §1

[2] = test system: E. coli S30 bacterial extract (pBest Luc luciferase transcription/translation); assay: Coupled bacterial transcription/translation assay (T/T); assay type: biochemical; conditions: luciferase reporter, 35 minutes at 37° C., read-out: Trans/Trans IC50
Protocol: The DNA template, pBest Luc™ (Promega), is a plasmid containing a reporter gene for firefly luciferase fused to a strong tac promoter and ribosome binding site. Messenger RNA from 1 μg pBestLuc was transcribed and translated in E. coli S30 bacterial extract in the presence or absence of test compound. Compounds were tested in a black 96 well microtiter plate with an assay volume of […]. Each test well contained: 5 μL test compound, 13 μL S30 premix (Promega), 4 μL 10× complete amino acid mix (1 mM each), 5 μL E. coli S30 extract and 8 μL of 0.125 μg/μL pBest Luc™. The transcription/translation reaction was incubated for 35 minutes at 37° C. followed by detection of functional luciferase with the addition of 30 μL LucLite™ (Packard). Light output was quantitated on a Packard TopCount.

E. Coli. = assay: Minimum inhibitory concentration (MIC), E. coli; assay type: cell-based; conditions: range of concentration, 20-24 hours at 37° C., A595
Protocol: (§2) The assays are carried out in 150 μL volume in duplicate in 96-well clear flat-bottom plates. The bacterial suspension from an overnight culture growth in appropriate medium is added to a solution of test compound in 2.5% DMSO in water. Final bacterial inoculum is approximately 10^2-10^3 CFU/well. The percentage growth of the bacteria in test wells relative to that observed for a control wells containing no compound is determined by measuring absorbance at 595 nm (A595) after 20-24 hours at 37° C. The MIC is determined as a range of concentration where complete inhibition of growth is observed at the higher concentration and bacterial cells are viable at the lower concentration. Both ampicillin and tetracycline are used as antibiotic positive controls in each screening assay.

S. Aureus = assay: Minimum inhibitory concentration (MIC), S. aureus; assay type: cell-based; conditions: range of concentration, 20-24 hours at 37° C., A595
Protocol: as §2

Structure (SMILES)	# Dead mice/Total mice in group ([1]; 0.5 mg/kg)	# Dead mice/Total mice in group ([1]; 1 mg/kg)	# Dead mice/Total mice in group ([1]; 2 mg/kg)	pKd (18S)	pKd (16S)	pIC50 [2]	MIC E. Coli. (E. Coli.) [µM]	MIC S. Aureus (S. Aureus) [µM]	MIC (E. Coli.; Escherichia coli) [µM]	MIC (S. Aureus; Staphylococcus aureus) [µM]
NCC[C@H](O)C(=O)N[C@@H]1C[C@H](N)[C@@H](O[C@H]2O[C@H](CN)[C@@H](O)[C@H](O)[C@H]2O)[C@H](O)[C@H]1O[C@H]1O[C@H](CO)[C@@H](O)[C@H](N)[C@H]1O [Amikacin]	8/10 (10% Mucin)	10/10 (10% Mucin)	8/10 (10% Mucin)	–	–	–	–	–	–	–
CNC[C@H]1O[C@H](O[C@H]2[C@H](O[C@@H]3O[C@H](CO)[C@@H](O[C@H]4O[C@@H](CN)[C@@H](O)[C@H](O)[C@H]4N)[C@H]3O)[C@@H](O)[C@H](N)C[C@@H]2N)[C@H](N)[C@@H](O)[C@@H]1O [IBIS00560186]	–	–	–	5.94	6.44	6.80	2 to 3	2 to 3	–	–
NC[C@@H]1O[C@H](O[C@H]2[C@@H](O)[C@H](O[C@@H]3[C@@H](O)[C@H](N)C[C@H](N)[C@H]3O[C@H]3O[C@H](CNN)[C@@H](O)[C@H](O)[C@H]3N)O[C@@H]2CO)[C@H](N)[C@@H](O)[C@@H]1O [IBIS00560187]	–	–	–	5.78	6.25	6.63	12 to 25	3 to 6	–	–
CC(C)(C)OC(=O)NNC[C@H]1O[C@H](O[C@H]2[C@H](O[C@@H]3O[C@H](CO)[C@@H](O[C@H]4O[C@@H](CN)[C@@H](O)[C@H](O)[C@H]4N)[C@H]3O)[C@@H](O)[C@H](N)C[C@@H]2N)[C@H](N)[C@@H](O)[C@@H]1O [IBIS00561082]	–	–	–	5.87	7.83	6.51	6 to 12	12 to 25	–	–
CC(C)NC[C@H]1O[C@H](O[C@H]2[C@H](O[C@@H]3O[C@H](CO)[C@@H](O[C@H]4O[C@@H](CN)[C@@H](O)[C@H](O)[C@H]4N)[C@H]3O)[C@@H](O)[C@H](N)C[C@@H]2N)[C@H](N)[C@@H](O)[C@@H]1O [IBIS00561095]	–	–	–	5.92	5.93	6.69	2.5 to 5.0	1.25 to 2.5	–	–
NCCCNC[C@H]1O[C@H](O[C@H]2[C@H](O[C@@H]3O[C@H](CO)[C@@H](O[C@H]4O[C@@H](CN)[C@@H](O)[C@H](O)[C@H]4N)[C@H]3O)[C@@H](O)[C@H](N)C[C@@H]2N)[C@H](N)[C@@H](O)[C@@H]1O [IBIS00561096]	–	–	–	5.84	5.80	6.76	2.5 to 5.0	1.25 to 2.5	–	–
NCCCCNC[C@H]1O[C@H](O[C@H]2[C@H](O[C@@H]3O[C@H](CO)[C@@H](O[C@H]4O[C@@H](CN)[C@@H](O)[C@H](O)[C@H]4N)[C@H]3O)[C@@H](O)[C@H](N)C[C@@H]2N)[C@H](N)[C@@H](O)[C@@H]1O [IBIS00561140]	–	–	–	5.22	5.20	7.49	–	–	2.5 to 5 (≈ 1.71 to 3.43 µg/mL)	10 to 20 (≈ 6.86 to 13.7 µg/mL)
Cc1ccc(CCNC[C@H]2O[C@H](O[C@H]3[C@H](O[C@@H]4O[C@H](CO)[C@@H](O[C@H]5O[C@@H](CN)[C@@H](O)[C@H](O)[C@H]5N)[C@H]4O)[C@@H](O)[C@H](N)C[C@@H]3N)[C@H](N)[C@@H](O)[C@@H]2O)cc1 [IBIS00561930]	–	–	–	–	–	–	2.5 to 5.0	0.6 to 1.2	–	–
CN(CCc1ccccc1)C[C@H]1O[C@H](O[C@H]2[C@H](O[C@@H]3O[C@H](CO)[C@@H](O[C@H]4O[C@@H](CN)[C@@H](O)[C@H](O)[C@H]4N)[C@H]3O)[C@@H](O)[C@H](N)C[C@@H]2N)[C@H](N)[C@@H](O)[C@@H]1O [IBIS00561931]	–	–	–	–	–	–	2.5 to 5.0	0.31 to 0.62	–	–
NC[C@@H]1O[C@H](O[C@H]2[C@@H](O)[C@H](O[C@@H]3[C@@H](O)[C@H](N)C[C@H](N)[C@H]3O[C@H]3O[C@H](CNCCCc4ccccc4)[C@@H](O)[C@H](O)[C@H]3N)O[C@@H]2CO)[C@H](N)[C@@H](O)[C@@H]1O [IBIS00561932]	–	–	–	–	–	–	0.6 to 1.2	0.31 to 0.62	–	–
